Results on 17 compounds are retold here after patent publication US11802108B2, “Compounds for the modulation of cyclophilins function” (The University Court of The University of Edinburgh, priority 2018, dated 2023).

Structures can show the parent of a compound that is named as a salt.

Assay [1] concerns the target T1, CypA (Homo sapiens (Human), UniProt P62937). In words: Isothermal titration calorimetry (ITC) binding to CypA. The note with it: 25° C. How it is done: All ITC experiments for the ester series compounds were carried out at 25° C. on a MicroCal Auto iTC200 (GE Healthcare) instrument. The buffer used in the titrations of the compounds belonging to the ester series was 50 mM phosphate buffer, pH 6.5 and the concentration of DMSO was 2% v/v for all the compounds, unless otherwise stated in Table 51. Final compound solutions were heated to 65° C. and/or sonicated prior to the experiment. Each experiment consisted of an initial injection of 0.4 μL followed by nineteen 2 μL injections and in most of cases for these compounds, the “continue injections” protocol was used leaving the cell intact and performing a second series of titrations using the above protocol to achieve saturation. Control experiments were performed, where each compound was titrated into buffer and when small amount of heat was detected due to heat of dilution, it was subtracted when processing the data using a linear fit method. In all cases the first injection was omitted from the data processing. All data were analysed using the MicroCal PEAQ-ITC Analysis software.
The buffer used for these titrations was: PBS, 0.05% v/v P20 surfactant, 50 μM EDTA in presence of 2% v/v EtOH and the pH was set to 7.4.
On the technique in general: In ITC the heat of successive injections is recorded.

The target in assay [2] is T1, CypA. In words: X-ray co-crystal structure with CypA. On CypA X-ray co-crystal: key: Y: observed in cocrystal; N: not observed in cocrystal. It counts as binding. The note with it: for CypA X-ray co-crystal: apo CypA crystals soaked with 5 mM ligand; for binding mode in co-crystal structure of CypA: FIG. 1. The method, then:
Purified and his-tag-cleaved CypA was buffer-exchanged into PBS and concentrated to ˜29 mg ml^−1. For crystallisation 1 μL of protein was mixed with an equal volume of the well solution, consisting of 100 mM Tris-HCl pH8.0 and 20-22% v/v PEG 8000, and crystal formation came about after equilibration overnight in 6° C. by vapour diffusion using the hanging drop method over 1 mL of the same well solution. Apo CypA crystals were soaked overnight into different ligand solution consisting of 100 mM Tris-HCl pH 8.0, 35% w/v PEG 8000, 5% v/v Glycerol, 5% v/v DMSO and 5 mM ligand, before flash frozen into liquid nitrogen. X-ray data were collected at the Diamond synchrotron-radiation facility in Oxford-shire, England at 100K. Structures were solved by molecular replacement using DIMPLE from the CCP4i suite. Modelled structures were visualised and manually adjusted as needed using Coot10 and further refined using REFMAC5 from CCP4i.
FIG. 1A summarises the mode of binding of certain prior-art urea small molecule Cyp inhibitors.

For another assay, the target named is CypB (Homo sapiens (Human), UniProt P23284). In words: Surface plasmon resonance (SPR) binding to His-CypB. Particulars: 25° C., triplicate. The method, then: (§1) Single cycle kinetic titration binding experiments were performed using SPR in triplicate at 25° C. […] The sensor surface was regenerated between experiments by dissociating any formed complex in running buffer for at least 1,200 seconds.
Sequence of CypB (P23284 34-216): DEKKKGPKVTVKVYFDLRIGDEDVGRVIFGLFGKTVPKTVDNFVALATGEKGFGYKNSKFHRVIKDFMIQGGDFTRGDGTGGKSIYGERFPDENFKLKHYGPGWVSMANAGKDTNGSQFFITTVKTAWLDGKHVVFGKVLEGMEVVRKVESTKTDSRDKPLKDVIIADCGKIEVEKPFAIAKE
(§2) Kinetic titration binding experiments were performed in triplicate at 25° C. […] The sensor surface was regenerated between experiments by dissociating any formed complex in running buffer for at least a further 600 seconds.

For assay [3], the target named is T1, CypA. In words: Surface plasmon resonance (SPR) binding to His-CypA. Particulars: 25° C., triplicate. How it is done: (§3) SPR measurements were performed on a BIAcore T200 instrument (GE Healthcare). Ni^2+-nitrilotriacetic acid (NTA) sensor chips, 1-ethyl-3-(3-[…]) carbodiimide hydrochloride (EDC) and Nhydroxysuccinimide (NHS) were purchased from GE Healthcare.
(§4) Pure His-cyclophilins were immobilized and covalently stabilized on the NTA sensor chip according to the protocol described in Thermo-kinetic analysis space expansion for cyclophilin-ligand interactions—identification of a new nonpeptide inhibitor using Biacore T200.
as §1, §2
For orientation: SPR reads the build-up and loss of mass on a sensor chip optically.

The target of another assay is CypD (Homo sapiens (Human), UniProt P30405). In words: Surface plasmon resonance (SPR) binding to His-CypD. Particulars: 25° C., triplicate. The method, then:
as §3, §4, §1, §2

For assay [4], the system named is MDA-MB-231 cells in presence of NK92 cells. Put plainly: NK92 immune cell killing of MDA-MB-231 cancer cells. It is filed as cell-based. The note with it: with NK92 cells. The method, then: (§5) The latter medium with 2000 U/mL IL-2 was used for NK92 cell killing assays.
NK92 cells were then added at a density of 1000 cells per well and 10 μM test compound was added. Cells were imaged with a 10× objective every 3 hours for 120 hours using an IncuCyte ZOOM microscope from Essen Bioscience.
Apoptotic fraction of the population (number of nuclei with co-localized red and green fluorescence divided by total number of red nuclei in the population) and fold increase in number of red nuclei were determined at various time points.

For another assay, the system named is MDA-MB-231 cells. In words: Growth inhibition (GI50) of MDA-MB-231 cells, IncuCyte imaging. It is filed as cell-based. The note with it: MDA-MB-231, 120 hours imaging. How it is done:
as §5
To determine the direct effect of the compounds on cell proliferation, cells were seeded at a density of 500 cells per well in cell culture medium in 384-well cell culture plates and allowed to adhere overnight (about 16 hours), incubated in a humidified atmosphere with 5% CO2. Subsequently, cell culture medium was refreshed, supplemented with Draq 7 (3 μM final concentration) and test compound at the indicated concentrations with three wells being treated for each condition tested. Cells were then returned to the cell culture incubator and imaged with a 10× objective every 3 hours for 120 hours using an IncuCyte ZOOM microscope from Essen Bioscience.
Using the IncuCyte ZOOM software, custom image analysis procedures were developed and applied for each cell line to determine cell confluency, cell number and number of dead cells over the time course of the experiment.
Statistical analyses in cell viability assays to compare the effect of compound treatment to treatment with vehicle were performed using GraphPad Prism 6 (2-way ANOVA with Bonferroni correction post hoc).

T1 sequence (P62937 whole entry): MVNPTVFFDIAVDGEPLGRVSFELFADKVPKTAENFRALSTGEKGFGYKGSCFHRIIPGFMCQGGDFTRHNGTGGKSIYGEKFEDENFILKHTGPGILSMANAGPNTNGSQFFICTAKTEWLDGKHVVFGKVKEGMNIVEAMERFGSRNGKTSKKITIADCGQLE
Sequence of CypD (P30405 30-207): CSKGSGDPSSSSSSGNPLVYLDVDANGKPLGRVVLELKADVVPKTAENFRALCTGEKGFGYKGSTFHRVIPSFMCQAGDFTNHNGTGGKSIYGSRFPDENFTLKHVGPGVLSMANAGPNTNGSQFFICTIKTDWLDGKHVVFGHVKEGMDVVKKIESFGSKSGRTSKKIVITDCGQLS

In the case of `CCOC(=O)CNC(=O)N(CC)Cc1ccc2c(c1)[C@H]1CC(N2)[C@H](O)CO1` (stereo in doubt) [Compound 23, Ethyl 2-{[ethyl({[(1R,9S,10S)-10-hydroxy-12-oxa-8-azatricyclo[7.3.1.0^2,7]trideca-2,4,6-trien-4-yl]methyl})carbamoyl]amino}acetate hydrochloride], binding on CypA [1] was put at a Kd of 700 ± 235 µM. On CypA [2], the “CypA X-ray co-crystal” value is “N”.
As for `CCOC(=O)Cn1cc(CN(Cc2ccc(N)cc2)C(=O)NCC(=O)N2CCCC2c2ccccc2Br)nn1.Cl` (centres unmarked) [Compound 5, Ethyl 2-[4-({[(4-aminophenyl)methyl]({2-[2-(2-bromophenyl)pyrrolidin-1-yl]-2-oxoethyl}carbamoyl)amino}methyl)-1H-1,2,3-triazol-1-yl]acetate hydrochloride], the Kd (commonly the free concentration of one partner at which half of the binding sites on the other are occupied at equilibrium, for simple one-to-one binding) on CypA [1] was roughly 3 µM; on CypB, 1.9 ± 0.9 µM; on CypA [3], 4.3 ± 1 µM; on CypD, 1 ± 0.4 µM. In addition, the “CypA X-ray co-crystal” value at CypA [2] is recorded as “N”.
Compound `CCOC(=O)CCn1cc(CN(Cc2ccc(N)cc2)C(=O)NCC(=O)N2CCCC2c2ccccc2Br)nn1.Cl` (centres unmarked) [Compound 6, Ethyl 3-[4-({[(4-aminophenyl)methyl]({2-[2-(2-bromophenyl)pyrrolidin-1-yl]-2-oxoethyl}carbamoyl)amino}methyl)-1H-1,2,3-triazol-1-yl]propanoatehydrochloride] yielded a Kd at CypA [1] of 0.3 ± 0.08 µM. In addition, the “CypA X-ray co-crystal” value on CypA [2] is listed as “N”.
For `Cl.Cn1cc(CN(Cc2ccc(N)cc2)C(=O)NCC(=O)N2CCCC2c2ccccc2Cl)nn1` (centres unmarked) [Compound 8, 1-[(4-aminophenyl)methyl]-3-{2-[2-(2-chlorophenyl)pyrrolidin-1-yl]-2-oxoethyl}-1-[(1-methyl-1H-1,2,3-triazol-4-yl)methyl]urea hydrochloride] the same measures were 1.1 ± 0.4 µM and “N”.
The like results for `CCN(Cc1ccc(N)cc1)C(=O)NCC(=O)N1CCCC1c1ccccc1` (centres unmarked) [Compound 9, 1-[(4-aminophenyl)methyl]-3-{2-[2-(phenyl)pyrrolidin-1-yl]-2-oxoethyl}-1-ethylurea] were, in that order, 35 ± 5 µM and “Y”.
`CCN(Cc1ccc(N)cc1)C(=O)NCC(=O)N1CCCC1c1ccccc1Br.Cl` (centres unmarked) [Compound 10, 1-[(4-aminophenyl)methyl]-3-{2-[2-(2-bromophenyl)pyrrolidin-1-yl]-2-oxoethyl}-1-ethylurea hydrochloride] returned a dissociation constant Kd on CypA [1] of roughly 25 µM. Besides, at CypA [2], the “CypA X-ray co-crystal” value is “N”.
For `Cl.Nc1ccc(CN(CC2CC2)C(=O)NCC(=O)N2CCCC2c2ccccc2Br)cc1` (centres unmarked) [Compound 11, 1-[(4-aminophenyl)methyl]-3-{2-[2-(2-bromophenyl)pyrrolidin-1-yl]-2-oxoethyl}-1-(cyclopropylmethyl)urea] the same measures were roughly 10 µM and “Y”.
In turn, `CCOC(=O)CNC(=O)N(CC)Cc1ccc(N)cc1.Cl` [Compound 12, Ethyl 2-({[(4-aminophenyl)methyl](ethyl)carbamoyl}amino)acetate hydrochloride] had a Kd at CypA [1] of 200 ± 5 µM. Besides, on CypA [2], the “binding mode in co-crystal structure of CypA” value was “type-I binding mode” and the “CypA X-ray co-crystal” value is “Y”.
Compound `CCOC(=O)CNC(=O)N(CC#N)Cc1ccc(N)cc1.Cl` [Compound 13, Ethyl 2-({[(4-aminophenyl)methyl](cyanomethyl)carbamoyl}amino)acetate hydrochloride] had a Kd at CypA [1] of 990 ± 20 µM. Also, at CypA [2], the “CypA X-ray co-crystal” value is “Y”.
As to `CCOC(=O)CNC(=O)N(Cc1ccc(N)cc1)Cc1nnn[nH]1.Cl` [Compound 14, Ethyl 2-({[(4-aminophenyl)methyl][(1H-1,2,3,4-tetrazol-5-yl)methyl]carbamoyl}amino)acetate hydrochloride], the Kd on CypA [1] was 139 ± 4 µM. The “CypA X-ray co-crystal” value on CypA [2] is reported as “N”.
For `CCOC(=O)[C@H](CCSC)NC(=O)N(CC)Cc1ccc(N)cc1` [Compound 15, Ethyl (2S)-2-({[(4-aminophenyl)methyl](ethyl)carbamoyl}amino)-4-(methylsulfanyl)butanoate hydrochloride] the same measures were 35 ± 5 µM and “Y”.
For `CCCN(Cc1ccc(N)cc1)C(=O)NCC(=O)OCC` [Compound 16, Ethyl 2-({[(4-aminophenyl)methyl](propyl)carbamoyl}amino)acetate] the same measures were 266 ± 3 µM and “Y”.
As for `CCOC(=O)CNC(=O)N(Cc1ccc(N)cc1)CC1CC1.Cl` [Compound 17, Ethyl 2-({[(4-aminophenyl)methyl](cyclopropylmethyl)carbamoyl}amino)acetate hydrochloride], the “CypA X-ray co-crystal” value on CypA [2] is on record as “Y”.
At CypA [1], `CCOC(=O)CNC(=O)N(Cc1ccc(N)cc1)Cc1cn(C)nn1.Cl` [Compound 18, Ethyl 2-({[(4-aminophenyl)methyl][(1-methyl-1H-1,2,3-triazol-4-yl)methyl]carbamoyl}amino)acetate hydrochloride] yielded a Kd of 135 ± 6 µM. Also, at CypA [2], the “CypA X-ray co-crystal” value is reported as “Y”.
As for `CCOC(=O)CNC(=O)N(Cc1ccc(N)cc1)Cc1nnn(C)n1.Cl` [Compound 19, Ethyl 2-({[(4-aminophenyl)methyl][(2-methyl-2H-1,2,3,4-tetrazol-5-yl)methyl]carbamoyl}amino)acetate hydrochloride], the equilibrium dissociation constant (Kd) on CypA [1] is 184 ± 13 µM. In addition, at CypA [2], the “binding mode in co-crystal structure of CypA” value is listed as “type-II binding mode” and the “CypA X-ray co-crystal” value was “Y”.
In turn, `C#CCN(Cc1ccc(N)cc1)C(=O)NCC(=O)OCC` [Compound 22, Ethyl 2-({[(4-aminophenyl)methyl](prop-2-yn-1-yl)carbamoyl}amino)acetate] registered a dissociation constant (Kd) at CypA [1] greater than 1000 µM. The “CypA X-ray co-crystal” value on CypA [2] is “Y”.
For the compound `C/C=C/CC(C)C(O)C1C(=O)NC(CC)C(=O)N(C)CC(=O)N(C)C(CC(C)C)C(=O)NC(C(C)C)C(=O)N(C)C(CC(C)C)C(=O)NC(C)C(=O)NC(C)C(=O)N(C)C(CC(C)C)C(=O)N(C)C(CC(C)C)C(=O)N(C)C(C(C)C)C(=O)N1C` (centres unmarked) [CsA, Cyclosporin A, reference compound], in assay [4], the “Apoptotic fraction of the MDA-MB-231 population in the presence of NK92 cells after 72 h @ 10 μM” value was found to be 0.38 ± 0.01. Also, in the assay on MDA-MB-231 cells, halving of growth (GI50) required 6.2 ± 0.8 µM.
